From patent US7312248B2, “Control of parasites in animals by the use of novel trifluoromethanesulfonanilide oxime ether derivatives” (Schering-Plough Animal Health Corporation, priority 2004, dated 2007)
Read-outs that look alike come from different tables or passages of the source.

Columns and labels:
Assay type in all cases: in vivo
[1] = tested on: cat flea (Ctenocephalides felis); experiment: whole plant or invertebrate; conditions: Ctenocephalides felis
In short: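 Single-dose screen at 1.26 μg/cm^2: acetone solution dried for 24 h on a Coatasil-treated 159 mm^2 flask base, then 15 adult cat fleas aged 3-7 days per flask, four or more replicates, acetone control. Percent dead, meaning not moving or unable to right themselves, recorded after 8, 24 and/or 48 h at 25 °C and 75% RH.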

[2] = tested on: cat flea (Ctenocephalides felis); experiment: Ctenocephalides felis adulticide assay: dose response (LC50)
In short: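 Groups of 15 adult cat fleas, 3–7 days post-emergence, were exposed for 24 h at 25° C and 75% humidity to glass flask bases coated with six serial doses in acetone and dried for 24 h. Mortality was scored at 8 and 24 h, and LC50 was the surface-treatment concentration killing 50%.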

[3] = tested on: Brown Dog Tick (Rhipicephalus sanguineus); experiment: Dose response protocol for topical application on brown dog ticks (LD50); conditions: 24 h mortality
Method: e) Dose response protocol for topical application on brown dog ticks (Rhipicephalus sanguineus): The test determines the level of insecticidal activity of sample compounds or formulations when applied topically on brown dog ticks. Sample compounds were stored prior to use in a freezer (−5±1° C.), unless otherwise specified.
• Mortality: A tick is defined as dead after it gives no apparent response when touched lightly or gently breathed upon, while observed for 30 seconds. • LD50 (Lethal Dose 50): The dose of a topically applied treatment at which 50% of the dog ticks are killed. • Reference compound: To assess an experimental compound for significant acaricidal activity a single dose level is chosen, which is based upon known results from previous experiments using a commercially available active i.e., a reference compound. The reference compound selected is one in common use, and one that has a similar mode of action against the Brown Dog Tick (i.e., the test species). • Recovery container: A recovery container consists of a 500 ml round plastic container measuring 115 mm diameter and 70 mm height, with a tight fitting lid that has 10 small (˜1 mm) holes inserted for air exchange. A 90 mm diameter piece of filter paper was placed on the bottom of the container and moistened with 1 mL of de-stilled water.
Adult, mixed sex, Brown Dog Ticks (Rhipicephalus sanguineus) were reared as follows: (i) cultured, (ii) transferred unfed, to a testing laboratory, and (iii) then maintained under controlled conditions (i.e., temp. 18°±2° C., humidity 75±5% RH). The ticks used were selected for vigor prior to testing, i.e., capable of actively walking and responsive to being touched or gently breathed upon.
During the testing, the temperature was maintained at 25±1° C., and the humidity was ambient. Seven dose levels (concentrations) of sample compound, in the form of serial dilutions in acetone, were derived from a pilot study and covered a range that produced very low to very high mortality. Groups of ten ticks were treated topically (on the abdomen) with 1 μL of a single dose level of the sample compound. Each test was replicated four times, i.e., employing a total of 40 ticks per dose level of each sample compound. As a control, ten ticks were treated with solvent only (acetone) for each test. Following the treatment, the ticks were held in recovery containers maintained under appropriate rearing conditions for 24 hours. Mortality resulting from the treatments was recorded at 24 hours. […] Press, London (1971).]

[4] = tested on: Brown Dog Tick (Rhipicephalus sanguineus); experiment: Rapid screening protocol for topical application on brown dog ticks; conditions: 48 h; Laboratory 2 F data
Method: d) Rapid Screening Protocol for Topical Application on Brown Dog Ticks (Rhipicephalus sanguineus)
The aim of the test was to determine the presence of significant acaricidal activity in sample compounds or formulations when applied topically on brown dog ticks. A tick was defined as dead if it gave no apparent response when touched lightly and observed for 1 minute. […] Both permethrin and fipronil were employed as reference compounds. The insect species tested was the Brown Dog Tick (Rhipicephalus sanguineus). Mixed sex adult ticks were used for tests. The strain used was cultured by von Berky Veterinary Services, Woody Point, QLD, AU and supplied as unfed adult ticks (mixed sex). Ticks were maintained in controlled conditions (temp. 18°+2° C., humidity 75±5% RH).
Temperature was maintained at 25±1° C. and the humidity was ambient. […] Ticks were each treated on the abdomen with 1 μL of a single dose level of test sample in acetone; ten ticks were treated with solvent only (acetone) in each test. Tests were replicated 4 times (total of 40 ticks treated). […]

[5] = tested on: Haemonchus contortus; experiment: Haemonchus contortus larvacidal (larval development) assay; conditions: 144 h, read-out: Haemonchus contortus LD99
In short: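 Nematode eggs placed on agar containing compound (12 two-fold dilutions, final 0.024–50 μg/ml) and left 6 days to develop to L3. LD99 is the lowest concentration inhibiting development of 99% of larvae, derived from well titre (2^n−1) and top concentration.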

[6] = 8 h, read-out: C. felis Mortality (%) 8 h, 8 h, Laboratory 2 B data
[7] = 24 h, read-out: C. felis Mortality (%) 24 h, 24 h, Laboratory 2 B data
[8] = 24 h, read-out: C. felis Mortality (%) 24 h, 24 h, Laboratory 1 A data
[9] = 48 h, read-out: C. felis Mortality (%) 48 h, 48 h, Laboratory 2 B data

SMILES | mortality at 1.26 µg/cm2, 1.26 µg/cm2 [1, 6] | mortality at 1.26 µg/cm2, 1.26 µg/cm2 [1, 7] | C. felis LC50 ([2]; Laboratory 1 C data) | C. felis LC50 ([2]; Laboratory 2 D data) | R. sanguineus LD50 [3] | R. sanguineus Mortality (%) 48 h [4] | mortality at 1.26 µg/cm2, 1.26 µg/cm2 [1, 8] | mortality at 1.26 µg/cm2, 1.26 µg/cm2 [1, 9] | IC99 [5]
C/C(=N\OCC1CC1)c1cc(Cl)ccc1NS(=O)(=O)C(F)(F)F [Compound 187, N-[4-chloro-2-(1-cyclopropylmethoxyiminoethyl)phenyl]trifluoromethanesulfonamide] | 100% | 100% | 0.1 μg/cm^2 | 0.005 μg/cm^2 | 1.0 μg/tick | 100% |  |  | 
C/C(=N\OC1C=CCCC1)c1cc(Cl)ccc1NS(=O)(=O)C(F)(F)F (stereo not drawn) [Compound 175] |  |  | 0.1 μg/cm^2 |  | 4.0 μg/tick |  | 100% |  | 
C=CCO/N=C(\CC)c1cc(Cl)ccc1NS(=O)(=O)C(F)(F)F [Compound 156, N-[2-(1-allyloxyiminopropyl)-4-chlorophenyl]trifluoromethanesulfonamide] |  |  | 0.4 μg/cm^2 | 0.02 μg/cm^2 | 0.6 μg/tick | 95% | 100% |  | 
CC/C(=N\OC1CCCC1)c1cc(Cl)ccc1NS(=O)(=O)C(F)(F)F [Compound 155] |  |  | 0.2 μg/cm^2 | 0.02 μg/cm^2 | 1.5 μg/tick | 92% | 100% |  | 
C/C(=N\OCC1CCCC1)c1cc(Cl)ccc1NS(=O)(=O)C(F)(F)F [Compound 189] | 91% | 97% |  | 0.01^D μg/cm^2 | 2.2 μg/tick | 100% |  |  | 
C/C(=N\OC(C)C)c1ccc(C(F)(F)F)cc1NS(=O)(=O)C(F)(F)F [Compound 235] |  | 100% |  | 0.2^D μg/cm^2 | 2.3 μg/tick |  |  | 100% | 
CC(C)=CCO/N=C(\C)c1cc(Cl)ccc1NS(=O)(=O)C(F)(F)F [Compound 249] |  | 100% |  | 1.3^D μg/cm^2 | 3.3 μg/tick |  |  | 100% | 
CC/C(=N\OC(C)CC)c1cc(Cl)ccc1NS(=O)(=O)C(F)(F)F (stereo not drawn) [Compound 243] |  | 100% |  | 0.1^D μg/cm^2 | 3.8 μg/tick |  |  | 100% | 
CC/C(=N\OC1CCCCC1)c1cc(Cl)ccc1NS(=O)(=O)C(F)(F)F [Compound 157] |  |  | 0.3 μg/cm^2 |  | 5.7 μg/tick |  | 100% |  | 
C/C(=N\OC(C)C1CC1)c1cc(Cl)ccc1NS(=O)(=O)C(F)(F)F (stereo not drawn) [Compound 253] |  | 100% |  | 1.2^D μg/cm^2 | 3.4 μg/tick |  |  | 100% | 
C/C(=N\Oc1ccc(F)cc1)c1cc(Cl)ccc1NS(=O)(=O)C(F)(F)F [Compound 129, N-{4-chloro-2-[1-(4-fluorophenoxyimino)ethyl]phenyl}trifluoromethanesulfonamide] |  |  | 0.05 μg/cm^2 | 0.02 μg/cm^2 | 1.3 μg/tick |  | 100% |  | 1.9 µg/mL
